Measurements as given in article PMC6199744, “Development of Chemical Proteomics for the Folateome and Analysis of the Kinetoplastid Folateome” (ACS Infectious Diseases, 2018).
Read-outs that look alike come from different tables or passages of the source.

What was measured:
Format in all cases: binding
[1] = biological target: T1, HeLa cell extract proteins (Homo sapiens, UniProt P49336)
T1 construct: endogenous in cells; host or cells: HeLa cell extract

[2] = biological target: T2, HeLa cell extract proteins (Homo sapiens, UniProt P26639)
T2 construct: endogenous in cells; host or cells: HeLa cell extract
T2 sequence (P26639 1-723): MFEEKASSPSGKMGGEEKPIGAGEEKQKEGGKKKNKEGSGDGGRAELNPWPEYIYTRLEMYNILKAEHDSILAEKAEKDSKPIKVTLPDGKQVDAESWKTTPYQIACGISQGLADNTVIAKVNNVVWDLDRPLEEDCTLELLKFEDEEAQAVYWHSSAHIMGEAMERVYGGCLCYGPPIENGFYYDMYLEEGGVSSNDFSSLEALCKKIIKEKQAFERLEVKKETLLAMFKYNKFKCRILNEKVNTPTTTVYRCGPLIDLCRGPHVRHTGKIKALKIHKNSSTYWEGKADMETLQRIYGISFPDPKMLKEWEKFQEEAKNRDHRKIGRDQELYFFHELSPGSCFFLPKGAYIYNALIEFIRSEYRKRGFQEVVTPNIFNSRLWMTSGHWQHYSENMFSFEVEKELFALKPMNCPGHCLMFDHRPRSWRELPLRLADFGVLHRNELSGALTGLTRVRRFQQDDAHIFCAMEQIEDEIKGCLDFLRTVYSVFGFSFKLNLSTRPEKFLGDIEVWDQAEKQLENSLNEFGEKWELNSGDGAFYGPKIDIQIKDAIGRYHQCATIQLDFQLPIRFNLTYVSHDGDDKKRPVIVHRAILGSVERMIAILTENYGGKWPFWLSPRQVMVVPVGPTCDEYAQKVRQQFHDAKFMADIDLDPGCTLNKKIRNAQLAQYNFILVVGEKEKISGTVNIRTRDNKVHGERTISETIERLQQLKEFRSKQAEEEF

[3] = biological target: T3, HeLa cell extract proteins (Homo sapiens, UniProt P00441)
T3 construct: endogenous in cells; host or cells: HeLa cell extract
T3 sequence (P00441 whole entry): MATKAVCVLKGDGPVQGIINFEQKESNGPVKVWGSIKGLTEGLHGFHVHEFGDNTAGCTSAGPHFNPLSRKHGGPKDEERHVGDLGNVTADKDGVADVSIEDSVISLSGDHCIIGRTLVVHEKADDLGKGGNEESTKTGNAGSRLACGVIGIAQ

[4] = biological target: T4, HeLa cell extract proteins (Homo sapiens, UniProt Q9Y230)
T4 construct: endogenous in cells; host or cells: HeLa cell extract
T4 sequence (Q9Y230 whole entry): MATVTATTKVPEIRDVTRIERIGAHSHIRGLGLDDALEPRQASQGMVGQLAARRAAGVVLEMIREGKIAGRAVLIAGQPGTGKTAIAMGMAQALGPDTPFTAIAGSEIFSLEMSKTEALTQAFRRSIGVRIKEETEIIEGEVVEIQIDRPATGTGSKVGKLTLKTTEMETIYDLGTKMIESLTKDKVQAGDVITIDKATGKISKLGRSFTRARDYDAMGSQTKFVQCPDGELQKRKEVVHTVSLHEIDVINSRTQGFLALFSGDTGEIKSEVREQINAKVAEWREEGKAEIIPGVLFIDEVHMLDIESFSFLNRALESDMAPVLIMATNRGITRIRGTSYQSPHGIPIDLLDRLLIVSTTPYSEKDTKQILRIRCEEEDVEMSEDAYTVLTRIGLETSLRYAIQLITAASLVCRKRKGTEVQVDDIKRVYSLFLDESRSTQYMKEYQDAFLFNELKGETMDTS

[5] = biological target: T5, HeLa cell extract proteins (Homo sapiens, UniProt P27348)
T5 construct: endogenous in cells; host or cells: HeLa cell extract
T5 sequence (P27348 1-245): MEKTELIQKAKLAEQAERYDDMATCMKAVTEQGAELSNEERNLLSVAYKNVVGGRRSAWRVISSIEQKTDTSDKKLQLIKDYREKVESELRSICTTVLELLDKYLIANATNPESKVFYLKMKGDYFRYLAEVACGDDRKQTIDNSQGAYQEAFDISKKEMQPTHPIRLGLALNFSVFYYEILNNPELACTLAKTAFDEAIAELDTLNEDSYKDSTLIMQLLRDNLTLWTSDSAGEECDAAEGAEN

[6] = biological target: T6, HeLa cell extract proteins (Homo sapiens, UniProt P31948)
T6 construct: endogenous in cells; host or cells: HeLa cell extract
T6 sequence (P31948 whole entry): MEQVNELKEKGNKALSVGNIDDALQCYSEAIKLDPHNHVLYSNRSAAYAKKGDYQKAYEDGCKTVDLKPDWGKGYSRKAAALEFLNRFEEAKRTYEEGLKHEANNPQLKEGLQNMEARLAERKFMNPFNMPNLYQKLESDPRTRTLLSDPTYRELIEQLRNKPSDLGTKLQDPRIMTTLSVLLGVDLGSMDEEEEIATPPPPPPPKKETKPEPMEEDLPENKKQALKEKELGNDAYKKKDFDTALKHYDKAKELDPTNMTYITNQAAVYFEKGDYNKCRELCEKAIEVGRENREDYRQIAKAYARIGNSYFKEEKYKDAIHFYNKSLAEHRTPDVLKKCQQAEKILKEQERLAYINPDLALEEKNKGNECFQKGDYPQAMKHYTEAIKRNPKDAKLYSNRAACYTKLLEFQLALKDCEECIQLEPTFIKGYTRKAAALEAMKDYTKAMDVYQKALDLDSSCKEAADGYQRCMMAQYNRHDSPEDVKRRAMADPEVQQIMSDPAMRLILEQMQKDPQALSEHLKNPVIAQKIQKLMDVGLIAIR

[7] = biological target: T7, HeLa cell extract proteins (Homo sapiens, UniProt P05023)
T7 construct: endogenous in cells; host or cells: HeLa cell extract

[8] = biological target: T8, HeLa cell extract proteins (Homo sapiens, UniProt Q9BQA1)
T8 construct: endogenous in cells; host or cells: HeLa cell extract
T8 sequence (Q9BQA1 whole entry): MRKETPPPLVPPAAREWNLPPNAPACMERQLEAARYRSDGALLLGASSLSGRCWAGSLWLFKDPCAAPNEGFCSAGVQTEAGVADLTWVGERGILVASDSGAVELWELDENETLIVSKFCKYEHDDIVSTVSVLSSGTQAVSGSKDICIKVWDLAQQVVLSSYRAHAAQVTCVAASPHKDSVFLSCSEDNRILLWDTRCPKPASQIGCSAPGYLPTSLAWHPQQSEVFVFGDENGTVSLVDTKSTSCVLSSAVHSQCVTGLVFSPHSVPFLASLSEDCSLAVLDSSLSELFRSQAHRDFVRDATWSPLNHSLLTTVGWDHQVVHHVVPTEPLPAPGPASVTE

[9] = biological target: T9, HeLa cell extract proteins (Homo sapiens, UniProt Q9HBL8)
T9 construct: endogenous in cells; host or cells: HeLa cell extract
T9 sequence (Q9HBL8 whole entry): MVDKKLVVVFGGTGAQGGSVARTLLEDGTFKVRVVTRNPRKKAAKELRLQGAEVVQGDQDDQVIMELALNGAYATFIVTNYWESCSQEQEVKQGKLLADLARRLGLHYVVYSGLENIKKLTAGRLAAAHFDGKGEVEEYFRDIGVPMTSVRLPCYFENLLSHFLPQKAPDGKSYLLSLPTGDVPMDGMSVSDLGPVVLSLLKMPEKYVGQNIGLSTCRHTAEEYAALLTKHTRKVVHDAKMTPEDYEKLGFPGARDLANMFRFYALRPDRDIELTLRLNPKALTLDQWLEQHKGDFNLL

[10] = biological target: T10, HeLa cell extract proteins (Homo sapiens, UniProt P49720)
T10 construct: endogenous in cells; host or cells: HeLa cell extract
T10 sequence (P49720 1-205): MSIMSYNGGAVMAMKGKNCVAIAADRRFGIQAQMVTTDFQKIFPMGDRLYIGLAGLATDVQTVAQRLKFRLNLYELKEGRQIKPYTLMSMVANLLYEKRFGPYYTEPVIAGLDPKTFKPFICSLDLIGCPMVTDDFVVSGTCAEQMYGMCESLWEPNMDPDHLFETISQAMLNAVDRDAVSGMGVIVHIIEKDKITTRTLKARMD

[11] = biological target: T11, HeLa cell extract proteins (Homo sapiens, UniProt P16070)
T11 construct: endogenous in cells; host or cells: HeLa cell extract
T11 sequence (P16070 21-742): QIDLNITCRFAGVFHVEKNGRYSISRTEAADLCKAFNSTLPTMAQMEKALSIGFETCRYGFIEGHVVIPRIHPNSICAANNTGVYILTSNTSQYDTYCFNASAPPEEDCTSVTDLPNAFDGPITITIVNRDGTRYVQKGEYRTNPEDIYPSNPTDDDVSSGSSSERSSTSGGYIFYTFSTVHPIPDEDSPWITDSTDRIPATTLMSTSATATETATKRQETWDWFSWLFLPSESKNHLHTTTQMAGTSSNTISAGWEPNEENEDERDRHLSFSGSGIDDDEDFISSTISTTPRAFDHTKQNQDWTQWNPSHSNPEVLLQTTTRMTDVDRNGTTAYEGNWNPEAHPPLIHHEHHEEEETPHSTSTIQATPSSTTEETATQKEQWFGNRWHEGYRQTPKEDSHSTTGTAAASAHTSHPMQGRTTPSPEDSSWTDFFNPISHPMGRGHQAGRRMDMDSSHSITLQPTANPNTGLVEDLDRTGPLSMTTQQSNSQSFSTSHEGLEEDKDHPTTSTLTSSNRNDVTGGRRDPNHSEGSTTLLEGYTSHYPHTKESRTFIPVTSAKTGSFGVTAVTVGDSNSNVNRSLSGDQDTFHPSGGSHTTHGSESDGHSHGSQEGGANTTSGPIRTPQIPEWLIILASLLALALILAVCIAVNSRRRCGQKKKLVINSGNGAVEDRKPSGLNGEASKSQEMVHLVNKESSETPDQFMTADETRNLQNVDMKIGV

[12] = biological target: T12, HeLa cell extract proteins (Homo sapiens, UniProt P31930)
T12 construct: endogenous in cells; host or cells: HeLa cell extract
T12 sequence (P31930 35-480): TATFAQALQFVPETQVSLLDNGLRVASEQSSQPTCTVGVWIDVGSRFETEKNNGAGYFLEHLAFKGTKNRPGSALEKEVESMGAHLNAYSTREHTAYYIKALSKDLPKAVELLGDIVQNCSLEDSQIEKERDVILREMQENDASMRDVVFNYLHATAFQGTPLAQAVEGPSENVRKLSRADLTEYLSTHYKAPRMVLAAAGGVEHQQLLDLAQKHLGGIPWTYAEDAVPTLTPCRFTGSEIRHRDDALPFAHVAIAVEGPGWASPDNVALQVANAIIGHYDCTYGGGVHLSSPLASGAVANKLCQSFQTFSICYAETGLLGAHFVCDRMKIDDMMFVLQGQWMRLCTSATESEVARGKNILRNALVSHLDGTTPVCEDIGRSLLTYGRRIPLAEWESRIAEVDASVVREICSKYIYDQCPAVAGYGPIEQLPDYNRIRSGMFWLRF

[13] = biological target: T13, HeLa cell extract proteins (Homo sapiens, UniProt P30041)
T13 construct: endogenous in cells; host or cells: HeLa cell extract
T13 sequence (P30041 1-224): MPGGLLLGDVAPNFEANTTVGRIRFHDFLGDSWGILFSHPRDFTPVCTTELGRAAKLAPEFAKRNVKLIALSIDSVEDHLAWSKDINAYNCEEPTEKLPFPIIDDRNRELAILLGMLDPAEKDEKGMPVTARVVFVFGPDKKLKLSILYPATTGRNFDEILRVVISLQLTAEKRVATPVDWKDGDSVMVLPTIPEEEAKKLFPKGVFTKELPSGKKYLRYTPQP

[14] = biological target: T14, HeLa cell extract proteins (Homo sapiens, UniProt Q96QK1)
T14 construct: endogenous in cells; host or cells: HeLa cell extract

[15] = biological target: T15, HeLa cell extract proteins (Homo sapiens, UniProt Q96CW5)
T15 construct: endogenous in cells; host or cells: HeLa cell extract
T15 sequence (Q96CW5 whole entry): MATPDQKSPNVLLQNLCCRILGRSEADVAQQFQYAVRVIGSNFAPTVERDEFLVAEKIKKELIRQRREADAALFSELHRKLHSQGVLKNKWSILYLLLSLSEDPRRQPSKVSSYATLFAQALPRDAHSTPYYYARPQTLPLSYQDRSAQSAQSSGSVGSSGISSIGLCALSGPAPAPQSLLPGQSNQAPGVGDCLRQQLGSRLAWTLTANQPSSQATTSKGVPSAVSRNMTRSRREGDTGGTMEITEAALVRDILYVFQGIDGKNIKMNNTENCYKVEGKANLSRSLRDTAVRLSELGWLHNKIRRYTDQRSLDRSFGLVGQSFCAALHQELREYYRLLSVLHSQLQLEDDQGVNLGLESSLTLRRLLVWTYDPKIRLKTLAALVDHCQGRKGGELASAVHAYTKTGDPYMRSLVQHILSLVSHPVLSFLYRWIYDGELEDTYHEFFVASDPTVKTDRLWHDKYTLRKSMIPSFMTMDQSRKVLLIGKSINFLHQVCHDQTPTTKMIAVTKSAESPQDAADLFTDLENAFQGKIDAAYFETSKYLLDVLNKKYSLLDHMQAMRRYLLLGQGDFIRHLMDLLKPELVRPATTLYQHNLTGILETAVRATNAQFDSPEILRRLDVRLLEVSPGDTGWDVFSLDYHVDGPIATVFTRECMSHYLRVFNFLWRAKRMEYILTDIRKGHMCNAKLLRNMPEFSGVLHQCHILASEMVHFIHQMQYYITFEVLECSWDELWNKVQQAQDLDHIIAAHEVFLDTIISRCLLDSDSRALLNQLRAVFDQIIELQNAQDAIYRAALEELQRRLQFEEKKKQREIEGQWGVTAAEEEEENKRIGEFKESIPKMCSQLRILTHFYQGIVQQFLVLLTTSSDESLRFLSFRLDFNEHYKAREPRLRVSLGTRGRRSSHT

[16] = biological target: T16, HeLa cell extract proteins (Homo sapiens, UniProt P15121)
T16 construct: endogenous in cells; host or cells: HeLa cell extract

[17] = HeLa, protein PRDX6 (PEROXIREDOXIN-6.)

T1 sequence (P49336 whole entry): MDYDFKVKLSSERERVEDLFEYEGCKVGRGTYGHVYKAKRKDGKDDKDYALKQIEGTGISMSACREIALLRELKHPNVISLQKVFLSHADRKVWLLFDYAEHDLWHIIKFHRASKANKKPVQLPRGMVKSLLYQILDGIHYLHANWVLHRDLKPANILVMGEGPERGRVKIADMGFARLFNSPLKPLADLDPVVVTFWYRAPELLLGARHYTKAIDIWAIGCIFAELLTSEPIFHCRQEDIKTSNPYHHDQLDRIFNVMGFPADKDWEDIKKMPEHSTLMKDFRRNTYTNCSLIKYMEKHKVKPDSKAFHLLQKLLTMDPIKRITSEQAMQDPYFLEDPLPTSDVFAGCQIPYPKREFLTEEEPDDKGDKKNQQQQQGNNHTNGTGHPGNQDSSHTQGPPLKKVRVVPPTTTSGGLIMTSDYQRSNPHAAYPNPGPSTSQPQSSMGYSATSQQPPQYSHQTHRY

Structure (SMILES)	fold changes relative to vehicle control ([4]; protein RUVBL2, HeLa)	fold changes relative to vehicle control ([6]; protein STIP1, HeLa)	fold changes relative to vehicle control ([7]; protein ATP1A1, HeLa)	fold changes relative to vehicle control ([11]; protein CD44, HeLa)	fold changes relative to vehicle control ([1]; captured protein CDK8, HeLa)	fold changes relative to vehicle control ([2]; protein TARS, HeLa)	fold changes relative to vehicle control ([3]; protein SOD1, HeLa)	fold changes relative to vehicle control ([5]; protein YWHAQ, HeLa)	fold changes relative to vehicle control ([8]; protein WDR77, HeLa)	fold changes relative to vehicle control ([9]; captured protein NMRAL1, HeLa)	fold changes relative to vehicle control ([10]; protein PSMB3, HeLa)	fold changes relative to vehicle control ([12]; HeLa, protein UQCRC1)	fold changes relative to vehicle control [13, 17]	fold changes relative to vehicle control ([14]; protein VPS35, HeLa)	fold changes relative to vehicle control ([15]; captured protein TUBGCP3, HeLa)	fold changes relative to vehicle control ([16]; protein AKR1B1, HeLa)	further results
Nc1nc2c(c(=O)[nH]1)N(C=O)C(CNc1ccc(C(=O)N[C@@H](CCC(=O)O)C(=O)O)cc1)CN2 (some centres unmarked) [LEU, leucovorin]	0.85	0.97	0.76	1.08													fold changes relative to vehicle control ([1]; protein CDK8, HeLa): 1.14; fold changes relative to vehicle control ([2]; HeLa, protein TARS): 1.03; fold changes relative to vehicle control ([3]; HeLa, protein SOD1): 1.01; fold changes relative to vehicle control ([5]; HeLa, protein YWHAQ): 1.08; fold changes relative to vehicle control ([8]; HeLa, protein WDR77): 0.83; fold changes relative to vehicle control ([9]; protein NMRAL1, HeLa): 1.01; fold changes relative to vehicle control ([10]; HeLa, protein PSMB3): 1.13; fold changes relative to vehicle control ([12]; HeLa, captured protein UQCRC1): 0.99; fold changes relative to vehicle control ([13]; HeLa, protein PRDX6): 1.05; fold changes relative to vehicle control ([14]; HeLa, protein VPS35): 0.91; fold changes relative to vehicle control ([15]; HeLa, protein TUBGCP3): 0.87; fold changes relative to vehicle control ([16]; HeLa, protein AKR1B1): 1.1
Nc1nc2[nH]cc(CCc3ccc(C(=O)N[C@@H](CCC(=O)O)C(=O)O)cc3)c2c(=O)[nH]1 [PTX, pemetrexed]																	fold changes relative to vehicle control [1]: 0.77; fold changes relative to vehicle control [2]: 1.02; fold changes relative to vehicle control [3]: 1.22; fold changes relative to vehicle control [4]: 0.87; fold changes relative to vehicle control [5]: 1.05; fold changes relative to vehicle control [6]: 1.01; fold changes relative to vehicle control [7]: 0.96; fold changes relative to vehicle control [8]: 0.81; fold changes relative to vehicle control [9]: 0.89; fold changes relative to vehicle control [10]: 0.99; fold changes relative to vehicle control [11]: 1.04; fold changes relative to vehicle control [12]: 0.88; fold changes relative to vehicle control [13]: 1.21; fold changes relative to vehicle control [14]: 1.05; fold changes relative to vehicle control [15]: 1.06; fold changes relative to vehicle control [16]: 1.22
CCCCCCOc1ccc(Cc2cnc(N)nc2N)cc1 [compound 1]	1.03	1.02	0.73	1.08	0.96	1.27	1.47	1.54	1.12	0.54	1.13	1.09	1.45 fold	1.13	0.94	1.12	
CCCCCCOc1cccc(Cc2cnc(N)nc2N)c1 [compound 2]	1.34	1.49	1.25	1.42	0.8	2.02	2.11	2.29	1.33	1.05	1.53	0.92	2.27 fold	1.7	1.05	1.7	
Nc1nc2cccc(-c3ccccc3)c2n1Cc1ccc(Cl)c(Cl)c1 [compound 3]	1.02	0.87	0.94	1.49	1.03	0.98	0.8	0.88	1	0.95	0.92	0.96	0.92 fold	0.96	1.02	0.8	
